Source: patent US20230391768A2, “IMIDAZOPYRIDINE DERIVATIVES AND AZA-IMIDAZOPYRIDINE DERIVATIVES AS JANUS KINASE 2 INHIBITORS AND USES THEREOF” (Dana-Farber Cancer Institute, Inc., priority 2018, published 2023)

Key:
Test in all cases: KINOMEscan
Assay type in all cases: binding
[1] = biological target: MARK3 (Homo sapiens (Human), UniProt P27448); settings: read-out: percent of control
Experimental: (§1) In vitro profiling of Compound I-2 (1 μM) was performed using the DiscoveRx KINOMEscan® platform.

[2] = biological target: PAK7 (Homo sapiens (Human), UniProt Q9P286); settings: read-out: percent of control
Chain of PAK7 (Q9P286 whole entry): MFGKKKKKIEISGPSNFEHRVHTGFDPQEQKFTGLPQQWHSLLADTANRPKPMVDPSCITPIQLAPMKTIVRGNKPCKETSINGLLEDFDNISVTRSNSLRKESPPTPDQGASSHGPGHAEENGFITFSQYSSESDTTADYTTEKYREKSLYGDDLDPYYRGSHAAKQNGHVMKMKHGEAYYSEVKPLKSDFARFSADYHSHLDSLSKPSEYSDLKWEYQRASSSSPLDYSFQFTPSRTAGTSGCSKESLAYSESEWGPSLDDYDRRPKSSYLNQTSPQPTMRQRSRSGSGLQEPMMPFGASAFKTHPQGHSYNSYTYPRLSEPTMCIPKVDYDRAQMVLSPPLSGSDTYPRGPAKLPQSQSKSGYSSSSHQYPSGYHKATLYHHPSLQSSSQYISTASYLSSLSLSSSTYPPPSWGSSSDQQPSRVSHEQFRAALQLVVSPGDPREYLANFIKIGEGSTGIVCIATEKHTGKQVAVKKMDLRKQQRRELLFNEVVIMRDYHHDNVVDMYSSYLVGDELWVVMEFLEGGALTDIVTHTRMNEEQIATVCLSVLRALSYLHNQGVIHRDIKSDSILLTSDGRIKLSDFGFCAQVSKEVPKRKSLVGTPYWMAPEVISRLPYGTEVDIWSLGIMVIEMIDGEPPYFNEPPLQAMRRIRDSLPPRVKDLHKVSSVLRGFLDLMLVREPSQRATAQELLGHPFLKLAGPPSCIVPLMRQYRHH
Experimental: as §1

[3] = biological target: PKN1 (Homo sapiens (Human), UniProt Q16512); settings: read-out: percent of control
Chain of PKN1 (Q16512 whole entry): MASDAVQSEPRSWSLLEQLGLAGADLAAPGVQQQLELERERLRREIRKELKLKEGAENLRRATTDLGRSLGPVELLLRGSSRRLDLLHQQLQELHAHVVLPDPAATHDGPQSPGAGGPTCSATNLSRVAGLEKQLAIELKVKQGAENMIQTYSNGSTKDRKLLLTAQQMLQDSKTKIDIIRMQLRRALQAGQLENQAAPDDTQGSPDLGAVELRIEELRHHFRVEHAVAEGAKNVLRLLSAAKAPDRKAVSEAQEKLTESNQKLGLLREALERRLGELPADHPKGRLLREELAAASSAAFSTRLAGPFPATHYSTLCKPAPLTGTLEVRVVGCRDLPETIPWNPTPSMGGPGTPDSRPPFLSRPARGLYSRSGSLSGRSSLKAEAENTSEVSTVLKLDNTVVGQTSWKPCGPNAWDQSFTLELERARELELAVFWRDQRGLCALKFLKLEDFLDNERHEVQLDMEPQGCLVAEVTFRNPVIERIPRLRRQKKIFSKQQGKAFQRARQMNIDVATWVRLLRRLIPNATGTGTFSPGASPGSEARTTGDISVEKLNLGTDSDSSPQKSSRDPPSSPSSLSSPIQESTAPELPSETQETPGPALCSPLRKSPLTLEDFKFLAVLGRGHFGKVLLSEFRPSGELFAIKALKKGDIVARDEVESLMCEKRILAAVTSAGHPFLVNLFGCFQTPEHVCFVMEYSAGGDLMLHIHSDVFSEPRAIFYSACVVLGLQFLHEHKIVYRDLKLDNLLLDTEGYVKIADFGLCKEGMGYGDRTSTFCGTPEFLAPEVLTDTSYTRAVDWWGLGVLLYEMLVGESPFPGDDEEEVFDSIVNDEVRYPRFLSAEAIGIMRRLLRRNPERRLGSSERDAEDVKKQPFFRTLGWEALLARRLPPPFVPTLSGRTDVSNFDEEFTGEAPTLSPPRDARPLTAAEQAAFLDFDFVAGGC
Experimental: as §1

[4] = biological target: CDK11 (Homo sapiens (Human), UniProt Q9BWU1); settings: read-out: percent of control
Experimental: as §1

[5] = biological target: ABL1(M351T)-phosphorylated (Homo sapiens (Human), UniProt P00519, M351T); settings: read-out: percent of control
Experimental: as §1

[6] = biological target: EGFR(S752-I759del) (Homo sapiens (Human), UniProt P00533, DEL752-759); settings: read-out: percent of control
Experimental: as §1

[7] = biological target: STK36 (Homo sapiens (Human), UniProt Q9NRP7); settings: read-out: percent of control
Experimental: as §1

[8] = biological target: CDK5 (Homo sapiens (Human), UniProt Q00535); settings: read-out: percent of control
Experimental: as §1

[9] = biological target: FLT3 (N841I) (Homo sapiens (Human), UniProt P36888, N841I); settings: read-out: percent of control
Experimental: as §1

[10] = biological target: LATS2 (Homo sapiens (Human), UniProt Q9NRM7); settings: read-out: percent of control
Experimental: as §1

[11] = biological target: MAST1 (Homo sapiens (Human), UniProt Q9Y2H9); settings: read-out: percent of control
Experimental: as §1

[12] = biological target: AMPK-alpha1 (Homo sapiens (Human), UniProt Q13131); settings: read-out: percent of control
Experimental: as §1

[13] = biological target: HIPK1 (Homo sapiens (Human), UniProt Q86Z02); settings: read-out: percent of control
Experimental: as §1

[14] = biological target: AMPK-alpha2 (Homo sapiens (Human), UniProt P54646); settings: read-out: percent of control
Experimental: as §1

[15] = biological target: RET (Homo sapiens (Human), UniProt P07949); settings: read-out: percent of control
Experimental: as §1

[16] = biological target: IRAK4 (Homo sapiens (Human), UniProt Q9NWZ3); settings: read-out: percent of control
Chain of IRAK4 (Q9NWZ3 whole entry): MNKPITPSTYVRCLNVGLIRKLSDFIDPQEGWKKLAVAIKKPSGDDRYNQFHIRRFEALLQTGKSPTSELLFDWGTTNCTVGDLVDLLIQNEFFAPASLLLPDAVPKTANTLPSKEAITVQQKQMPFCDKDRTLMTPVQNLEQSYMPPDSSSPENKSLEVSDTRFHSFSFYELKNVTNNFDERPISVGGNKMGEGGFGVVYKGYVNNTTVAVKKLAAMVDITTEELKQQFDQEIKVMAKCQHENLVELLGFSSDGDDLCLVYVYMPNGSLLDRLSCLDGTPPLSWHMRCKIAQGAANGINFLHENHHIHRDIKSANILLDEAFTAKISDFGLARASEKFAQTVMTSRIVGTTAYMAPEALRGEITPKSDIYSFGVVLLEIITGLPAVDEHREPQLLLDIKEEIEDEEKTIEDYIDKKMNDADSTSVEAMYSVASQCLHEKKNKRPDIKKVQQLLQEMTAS
Experimental: as §1

[17] = biological target: ERK3 (Homo sapiens (Human), UniProt Q16659); settings: read-out: percent of control
Experimental: as §1

[18] = biological target: BMPR2 (Homo sapiens (Human), UniProt Q13873); settings: read-out: percent of control
Experimental: as §1

[19] = biological target: MST1 (Homo sapiens (Human), UniProt Q13043); settings: read-out: percent of control
Experimental: as §1

[20] = biological target: ASK2 (Homo sapiens (Human), UniProt O95382); settings: read-out: percent of control
Experimental: as §1

[21] = biological target: SIK (Homo sapiens (Human), UniProt P57059); settings: read-out: percent of control
Experimental: as §1

[22] = biological target: MINK (Homo sapiens (Human), UniProt Q8N4C8); settings: read-out: percent of control
Experimental: as §1

[23] = biological target: PRKD1 (Homo sapiens (Human), UniProt Q15139); settings: read-out: percent of control
Experimental: as §1

[24] = biological target: GRK3 (Homo sapiens (Human), UniProt P35626); settings: read-out: percent of control
Experimental: as §1

[25] = biological target: ABL1(Q252H)-nonphosphorylated (Homo sapiens (Human), UniProt P00519, Q252H); settings: read-out: percent of control
Experimental: as §1

[26] = biological target: FGFR4 (Homo sapiens (Human), UniProt P22455); settings: read-out: percent of control
Experimental: as §1

[27] = biological target: RSK4 (Kin.Dom.2-C-terminal) (Homo sapiens (Human), UniProt Q9UK32); settings: read-out: percent of control
Experimental: as §1

[28] = biological target: TXK (Homo sapiens (Human), UniProt P42681); settings: read-out: percent of control
Experimental: as §1

[29] = biological target: ACVRL1 (Homo sapiens (Human), UniProt P37023); settings: read-out: percent of control
Experimental: as §1

[30] = biological target: FLT3 (R834Q) (Homo sapiens (Human), UniProt P36888, R834Q); settings: read-out: percent of control
Experimental: as §1

[31] = biological target: AURKC (Homo sapiens (Human), UniProt Q9UQB9); settings: read-out: percent of control
Experimental: as §1

[32] = biological target: TESK1 (Homo sapiens (Human), UniProt Q15569); settings: read-out: percent of control
Experimental: as §1

[33] = biological target: MKK7 (Homo sapiens (Human), UniProt O14733); settings: read-out: percent of control
Experimental: as §1

[34] = biological target: MARK4 (Homo sapiens (Human), UniProt Q96L34); settings: read-out: percent of control
Experimental: as §1

[35] = biological target: MAP4K3 (Homo sapiens (Human), UniProt Q8IVH8); settings: read-out: percent of control
Chain of MAP4K3 (Q8IVH8 whole entry): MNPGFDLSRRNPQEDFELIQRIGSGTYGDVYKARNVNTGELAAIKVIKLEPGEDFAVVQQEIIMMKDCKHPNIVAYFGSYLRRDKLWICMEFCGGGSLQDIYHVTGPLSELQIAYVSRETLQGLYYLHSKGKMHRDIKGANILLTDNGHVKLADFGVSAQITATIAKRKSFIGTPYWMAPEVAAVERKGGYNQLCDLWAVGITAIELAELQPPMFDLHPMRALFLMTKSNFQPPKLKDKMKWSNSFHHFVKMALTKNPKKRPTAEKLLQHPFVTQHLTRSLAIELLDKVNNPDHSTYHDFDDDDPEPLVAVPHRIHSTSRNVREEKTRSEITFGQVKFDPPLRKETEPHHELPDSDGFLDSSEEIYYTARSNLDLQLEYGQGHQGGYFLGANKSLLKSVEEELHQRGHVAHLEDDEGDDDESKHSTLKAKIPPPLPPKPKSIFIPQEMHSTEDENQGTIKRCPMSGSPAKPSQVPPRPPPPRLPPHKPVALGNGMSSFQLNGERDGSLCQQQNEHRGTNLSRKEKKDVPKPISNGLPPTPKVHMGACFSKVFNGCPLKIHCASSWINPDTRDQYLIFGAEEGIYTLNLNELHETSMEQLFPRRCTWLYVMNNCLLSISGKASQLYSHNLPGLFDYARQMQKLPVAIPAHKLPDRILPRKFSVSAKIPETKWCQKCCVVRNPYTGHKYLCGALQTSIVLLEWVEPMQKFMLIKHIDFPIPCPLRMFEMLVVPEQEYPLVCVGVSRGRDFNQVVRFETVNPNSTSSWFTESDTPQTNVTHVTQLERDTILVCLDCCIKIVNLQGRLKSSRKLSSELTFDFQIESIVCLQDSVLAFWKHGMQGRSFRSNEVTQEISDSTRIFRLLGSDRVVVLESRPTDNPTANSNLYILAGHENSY
Experimental: as §1

[36] = biological target: TRPM6 (Homo sapiens (Human), UniProt Q9BX84); settings: read-out: percent of control
Chain of TRPM6 (Q9BX84 whole entry): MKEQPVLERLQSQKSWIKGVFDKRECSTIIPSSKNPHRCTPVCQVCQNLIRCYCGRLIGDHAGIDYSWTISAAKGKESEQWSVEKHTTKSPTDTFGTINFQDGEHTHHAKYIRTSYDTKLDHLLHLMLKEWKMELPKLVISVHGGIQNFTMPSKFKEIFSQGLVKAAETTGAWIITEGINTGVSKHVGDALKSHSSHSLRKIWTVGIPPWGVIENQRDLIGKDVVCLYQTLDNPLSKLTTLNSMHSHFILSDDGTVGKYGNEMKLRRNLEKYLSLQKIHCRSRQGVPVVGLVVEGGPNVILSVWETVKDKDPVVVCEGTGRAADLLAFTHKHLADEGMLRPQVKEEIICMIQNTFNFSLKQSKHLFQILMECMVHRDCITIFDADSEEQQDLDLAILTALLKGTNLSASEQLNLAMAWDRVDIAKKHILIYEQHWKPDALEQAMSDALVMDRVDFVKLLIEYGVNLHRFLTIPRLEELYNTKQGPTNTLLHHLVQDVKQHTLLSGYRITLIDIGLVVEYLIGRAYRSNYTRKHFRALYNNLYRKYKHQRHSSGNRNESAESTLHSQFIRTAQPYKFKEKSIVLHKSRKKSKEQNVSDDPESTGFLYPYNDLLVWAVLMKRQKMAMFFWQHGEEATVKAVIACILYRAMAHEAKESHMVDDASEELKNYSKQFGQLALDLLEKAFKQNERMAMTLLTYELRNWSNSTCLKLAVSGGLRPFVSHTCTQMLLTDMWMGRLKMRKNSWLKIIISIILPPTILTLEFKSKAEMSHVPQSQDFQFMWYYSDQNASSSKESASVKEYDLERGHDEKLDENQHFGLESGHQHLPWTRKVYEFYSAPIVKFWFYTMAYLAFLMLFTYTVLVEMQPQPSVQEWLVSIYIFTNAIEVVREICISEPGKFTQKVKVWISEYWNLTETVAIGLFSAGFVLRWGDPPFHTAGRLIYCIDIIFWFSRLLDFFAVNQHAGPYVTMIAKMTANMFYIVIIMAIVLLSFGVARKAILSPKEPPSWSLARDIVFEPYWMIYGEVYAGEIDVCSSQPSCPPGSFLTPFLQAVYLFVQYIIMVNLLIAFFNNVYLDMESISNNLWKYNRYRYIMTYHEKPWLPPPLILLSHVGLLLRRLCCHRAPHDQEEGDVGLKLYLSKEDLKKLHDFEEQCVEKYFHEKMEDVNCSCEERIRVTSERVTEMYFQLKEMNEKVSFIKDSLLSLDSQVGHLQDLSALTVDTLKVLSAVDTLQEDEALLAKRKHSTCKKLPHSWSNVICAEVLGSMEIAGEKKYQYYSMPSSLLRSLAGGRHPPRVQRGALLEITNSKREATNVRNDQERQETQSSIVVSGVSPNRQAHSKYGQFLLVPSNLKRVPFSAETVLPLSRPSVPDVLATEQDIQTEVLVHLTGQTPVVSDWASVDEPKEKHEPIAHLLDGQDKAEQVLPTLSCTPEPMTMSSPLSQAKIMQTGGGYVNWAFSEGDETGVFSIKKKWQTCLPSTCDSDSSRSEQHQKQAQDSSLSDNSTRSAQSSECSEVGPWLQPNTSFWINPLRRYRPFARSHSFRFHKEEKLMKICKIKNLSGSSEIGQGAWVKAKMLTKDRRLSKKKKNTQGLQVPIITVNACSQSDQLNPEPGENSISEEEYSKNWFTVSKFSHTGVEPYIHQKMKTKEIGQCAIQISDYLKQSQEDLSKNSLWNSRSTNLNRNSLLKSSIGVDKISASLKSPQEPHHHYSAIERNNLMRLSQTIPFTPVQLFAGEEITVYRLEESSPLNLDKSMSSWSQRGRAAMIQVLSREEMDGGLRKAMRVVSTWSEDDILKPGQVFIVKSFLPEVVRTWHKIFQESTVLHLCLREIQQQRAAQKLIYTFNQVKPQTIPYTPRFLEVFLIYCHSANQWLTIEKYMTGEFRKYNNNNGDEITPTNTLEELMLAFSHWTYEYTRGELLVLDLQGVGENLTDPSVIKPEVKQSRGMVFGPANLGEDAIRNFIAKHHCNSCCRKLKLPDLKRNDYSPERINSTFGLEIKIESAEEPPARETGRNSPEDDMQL
Experimental: as §1

[37] = biological target: HPK1 (Homo sapiens (Human), UniProt Q92918); settings: read-out: percent of control
Experimental: as §1

[38] = biological target: PDGFRA (Homo sapiens (Human), UniProt P16234); settings: read-out: percent of control
Experimental: as §1

[39] = tested on: FLT3 (ITD,D835V); settings: 1 μM
Experimental: as §1

Row | SMILES | remaining binding at 1 µM [1] [%] | remaining binding at 1 µM [2] [%] | remaining binding at 1 µM [3] [%] | remaining binding at 1 µM [4] [%] | remaining binding at 1 µM [5] [%] | remaining binding at 1 µM [6] [%] | remaining binding at 1 µM [7] [%] | remaining binding at 1 µM [8] [%] | remaining binding at 1 µM [9] [%] | remaining binding at 1 µM [10] [%] | remaining binding at 1 µM [11] [%] | remaining binding at 1 µM [12] [%] | remaining binding at 1 µM [13] [%] | remaining binding at 1 µM [14] [%] | remaining binding at 1 µM [15] [%] | remaining binding at 1 µM [16] [%] | remaining binding at 1 µM [17] [%] | remaining binding at 1 µM [18] [%] | remaining binding at 1 µM [19] [%] | remaining binding at 1 µM [20] [%] | other results
1 | CCN1CCN(Cc2cc(NC(=O)c3ccc(C)c(-c4ccc5nc(NC(=O)C6CC6)cn5n4)c3)cc(C(F)(F)F)c2)CC1 [Compound I-2, 3-(2-(cyclopropanecarboxamido)imidazo[1,2-b]pyridazin-6-yl)-N-(3-((4-ethylpiperazin-1-yl)methyl)-5-(trifluoromethyl)phenyl)-4-methylbenzamide] | 94 | 73 | 98 | 0.6 | 0.8 | 80 | 66 | 6.6 | 0 | 79 | 94 | 99 | 62 | 99 | 0 | 26 | 89 | 100 | 30 | 99 | remaining binding at 1 µM [21]: 100%; remaining binding at 1 µM [22]: 0.6%; remaining binding at 1 µM [23]: 93%; remaining binding at 1 µM [24]: 87%; remaining binding at 1 µM [25]: 0%; remaining binding at 1 µM [26]: 100%; remaining binding at 1 µM [27]: 94%; remaining binding at 1 µM [28]: 16%; remaining binding at 1 µM [29]: 91%; remaining binding at 1 µM [30]: 1.5%; remaining binding at 1 µM [31]: 84%; remaining binding at 1 µM [32]: 100%; remaining binding at 1 µM [33]: 84%; remaining binding at 1 µM [34]: 84%; remaining binding at 1 µM [35]: 3.4%; remaining binding at 1 µM [36]: 93%; remaining binding at 1 µM [37]: 0.1%; remaining binding at 1 µM [38]: 1.1%; percent of control [39]: 61%
2 | CCN1CCN(Cc2cc(NC(=O)c3ccc(C)c(-c4ccc5nc(NC(=O)C6CC6)cn5c4)c3)cc(C(F)(F)F)c2)CC1 [Compound I-6, 3-(2-(cyclopropanecarboxamido)imidazo[1,2-a]pyridin-6-yl)-N-(3-((4-ethylpiperazin-1-yl)methyl)-5-(trifluoromethyl)phenyl)-4-methylbenzamide] | 95 | 98 | 98 | 2.7 | 0.5 | 65 | 100 | 52 | 0 | 85 | 95 | 90 | 96 | 99 | 0 | 33 | 100 | 100 | 60 | 64 | remaining binding at 1 µM [21]: 100%; remaining binding at 1 µM [22]: 2.4%; remaining binding at 1 µM [23]: 87%; remaining binding at 1 µM [24]: 90%; remaining binding at 1 µM [25]: 0.15%; remaining binding at 1 µM [26]: 100%; remaining binding at 1 µM [27]: 77%; remaining binding at 1 µM [28]: 19%; remaining binding at 1 µM [29]: 92%; remaining binding at 1 µM [30]: 2.1%; remaining binding at 1 µM [31]: 91%; remaining binding at 1 µM [32]: 97%; remaining binding at 1 µM [33]: 100%; remaining binding at 1 µM [34]: 80%; remaining binding at 1 µM [35]: 19%; remaining binding at 1 µM [36]: 78%; remaining binding at 1 µM [37]: 0.75%; remaining binding at 1 µM [38]: 1.2%; percent of control [39]: 76%
